From ChEMBL document CHEMBL4680155, “One-pot synthesis and molecular docking of some new spiropyranindol-2-one derivatives as immunomodulatory agents and in vitro antimicrobial potential with DNA gyrase inhibitor” (Eur J Med Chem, 2020) come the findings set out here.

Assay [1] relates to Enterococcus faecalis. The assay is described as follows: Antibacterial activity against Enterococcus faecalis ATCC 29212 assessed as diameter of inhibition zone at 0.5 mg/ml incubated for 24 hrs by agar diffusion method. It is filed as functional. As to conditions: read-out: DIZ. (Agar diffusion results depend on both activity and mobility in agar.)
Assay [2] concerns Staphylococcus aureus. The assay is described as follows: Antibacterial activity against Staphylococcus aureus ATCC 29213 assessed as diameter of inhibition zone at 0.5 mg/ml incubated for 24 hrs by agar diffusion method. It is filed as functional. The conditions noted are these: read-out: DIZ.
The test system of assay [3] is Escherichia coli. The assay is described as follows: Antibacterial activity against Escherichia coli ATCC 25922 assessed as diameter of inhibition zone at 0.5 mg/ml incubated for 24 hrs by agar diffusion method. Type of assay: functional. As to conditions: read-out: DIZ.
Assay [4] relates to Salmonella typhimurium. The assay is described as follows: Antibacterial activity against Salmonella typhi ATCC 6539 assessed as diameter of inhibition zone at 0.5 mg/ml incubated for 24 hrs by agar diffusion method. It is filed as functional, Salmonella enterica subsp. enterica serovar Typhimurium. The conditions noted are these: Salmonella enterica, read-out: DIZ.
Assay [5] deals with Candida albicans. The assay is described as follows: Antifungal activity against Candida albicans ATCC 10231 assessed as diameter of inhibition zone at 0.5 mg/ml incubated for 24 hrs by agar diffusion method. It is filed as functional. The conditions noted are these: read-out: DIZ.
Assay [6] relates to Aspergillus brasiliensis. The assay is described as follows: Antifungal activity against Aspergillus brasiliensis ATCC 16404 assessed as diameter of inhibition zone at 0.5 mg/ml incubated for 72 hrs by agar diffusion method. Type of assay: functional. The conditions noted are these: read-out: DIZ.
The test system of assay [7] is Enterococcus faecalis. Kind of assay: Antibacterial activity against Enterococcus faecalis ATCC 29212 assessed as reduction in bacterial growth incubated for 1 day by paper disk diffusion method. Type of assay: functional. As to conditions: ATCC 29212, 24 h.
For assay [8], the system named is Staphylococcus aureus. The assay is described as follows: Antibacterial activity against Staphylococcus aureus ATCC 29213 assessed as reduction in bacterial growth incubated for 1 day by paper disk diffusion method. Type of assay: functional. The conditions noted are these: ATCC 29213, 24 h.
The test system of assay [9] is Escherichia coli. Kind of assay: Antibacterial activity against Escherichia coli ATCC 25922 assessed as reduction in bacterial growth incubated for 1 day by paper disk diffusion method. Type of assay: functional. As to conditions: ATCC 25922, 24 h.
Assay [10] relates to Salmonella typhimurium. The assay is described as follows: Antibacterial activity against Salmonella typhi ATCC 6539 assessed as reduction in bacterial growth incubated for 1 day by paper disk diffusion method. The conditions noted are these: Salmonella enterica, ATCC 6539, 24 h. It is filed as functional, Salmonella enterica subsp. enterica serovar Typhimurium.
For assay [11], the system named is Candida albicans. Kind of assay: Antifungal activity against Candida albicans ATCC 10231 assessed as reduction in bacterial growth incubated for 1 day by paper disk diffusion method. The conditions noted are these: ATCC 10231, 24 h. Type of assay: functional.
Assay [12] relates to Aspergillus brasiliensis. Kind of assay: Antifungal activity against Aspergillus brasiliensis ATCC 16404 assessed as reduction in bacterial growth incubated for 3 days by paper disk diffusion method. The conditions noted are these: ATCC 16404, 72 h, time 3 day. Type of assay: functional.
Assay [13] relates to Enterococcus faecalis. The assay is described as follows: Bactericidal activity against Enterococcus faecalis ATCC 29212 incubated for 24 hrs followed by transferring to freshly prepared broth medium and measured after 24 hrs by broth microdilution assay. As to conditions: time 48 hrs. Type of assay: functional. (In general: In broth dilution the organism is exposed to a series of concentrations in liquid medium.)

Assay [14] deals with Staphylococcus aureus. The assay is described as follows: Bactericidal activity against Staphylococcus aureus ATCC 29213 incubated for 24 hrs followed by transferring to freshly prepared broth medium and measured after 24 hrs by broth microdilution assay. It is filed as functional. As to conditions: time 48 hrs.
Assay [15] concerns Escherichia coli. Kind of assay: Bactericidal activity against Escherichia coli ATCC 25922 incubated for 24 hrs followed by transferring to freshly prepared broth medium and measured after 24 hrs by broth microdilution assay. It is filed as functional. As to conditions: time 48 hrs.
Assay [16] deals with Salmonella typhimurium. The assay is described as follows: Bactericidal activity against Salmonella typhi ATCC 6539 incubated for 24 hrs followed by transferring to freshly prepared broth medium and measured after 24 hrs by broth microdilution assay. Type of assay: functional, Salmonella enterica subsp. enterica serovar […]. As to conditions: Salmonella enterica, time 48 hrs.

In assay [17] the test system is Candida albicans. Kind of assay: Fungicidal activity against Candida albicans ATCC 10231 incubated for 24 hrs followed by transferring to freshly prepared broth medium and measured after 24 hrs by broth microdilution assay. It is filed as functional. The conditions noted are these: time 48 hrs.
For assay [18], the system named is Aspergillus brasiliensis. Kind of assay: Fungicidal activity against Aspergillus brasiliensis ATCC 16404 incubated for 72 hrs followed by transferring to freshly prepared broth medium and measured after 24 hrs by broth microdilution assay. It is filed as functional. As to conditions: time 96 hrs.
Assay [19] has as its system Staphylococcus aureus. Kind of assay: Antibacterial activity against multidrug resistant Staphylococcus aureus ATCC 43300 assessed as diameter of inhibition zone at 0.5 mg/ml incubated for 24 hrs by agar diffusion method. As to conditions: read-out: DIZ. It is filed as functional.
Assay [20] concerns Staphylococcus aureus. The assay is described as follows: Antibacterial activity against multidrug resistant Staphylococcus aureus ATCC 33591 assessed as diameter of inhibition zone at 0.5 mg/ml incubated for 24 hrs by agar diffusion method. It is filed as functional. The conditions noted are these: read-out: DIZ.
Assay [21] relates to Escherichia coli. Kind of assay: Antibacterial activity against multidrug resistant Escherichia coli ATCC BAA-196 assessed as diameter of inhibition zone at 0.5 mg/ml incubated for 24 hrs by agar diffusion method. It is filed as functional. The conditions noted are these: read-out: DIZ.
Assay [22] has as its system Pseudomonas aeruginosa. Kind of assay: Antibacterial activity against multidrug resistant Pseudomonas aeruginosa ATCC BAA-2111 assessed as diameter of inhibition zone at 0.5 mg/ml incubated for 24 hrs by agar diffusion method. It is filed as functional. As to conditions: read-out: DIZ.
The test system of assay [23] is Staphylococcus aureus. The assay is described as follows: Antibacterial activity against multidrug resistant Staphylococcus aureus ATCC 43300 assessed as reduction in bacterial growth incubated for 1 day by paper disk diffusion method. It is filed as functional. The conditions noted are these: ATCC 43300, 24 h.
Assay [24] relates to Staphylococcus aureus. The assay is described as follows: Antibacterial activity against multidrug resistant Staphylococcus aureus ATCC 33591 assessed as reduction in bacterial growth incubated for 1 day by paper disk diffusion method. The conditions noted are these: ATCC 33591, 24 h. Type of assay: functional.
Assay [25] has as its system Escherichia coli. Kind of assay: Antibacterial activity against multidrug resistant Escherichia coli ATCC BAA-196 assessed as reduction in bacterial growth incubated for 1 day by paper disk diffusion method. The conditions noted are these: ATCC BAA-196, 24 h. It is filed as functional.
In assay [26] the test system is Pseudomonas aeruginosa. Kind of assay: Antibacterial activity against multidrug resistant Pseudomonas aeruginosa ATCC BAA-2111 assessed as reduction in bacterial growth incubated for 1 day by paper disk diffusion method. It is filed as functional. As to conditions: ATCC BAA-2111, 24 h.
Assay [27] deals with Staphylococcus aureus. Kind of assay: Bactericidal activity against Staphylococcus aureus ATCC 43300 incubated for 24 hrs followed by transferring to freshly prepared broth medium and measured after 24 hrs by broth microdilution assay. Type of assay: functional. As to conditions: time 48 hrs.
Assay [28] has as its system Staphylococcus aureus. Kind of assay: Bactericidal activity against Staphylococcus aureus ATCC 33591 incubated for 24 hrs followed by transferring to freshly prepared broth medium and measured after 24 hrs by broth microdilution assay. Type of assay: functional. The conditions noted are these: time 48 hrs.
Assay [29] relates to Escherichia coli. The assay is described as follows: Bactericidal activity against Escherichia coli ATCC BAA-196 incubated for 24 hrs followed by transferring to freshly prepared broth medium and measured after 24 hrs by broth microdilution assay. Type of assay: functional. As to conditions: time 48 hrs.
The subject of assay [30] is Pseudomonas aeruginosa. Kind of assay: Bactericidal activity against Pseudomonas aeruginosa ATCC BAA-2111 incubated for 24 hrs followed by transferring to freshly prepared broth medium and measured after 24 hrs by broth microdilution assay. The conditions noted are these: time 48 hrs. It is filed as functional.
In another assay the test system is Neutrophil. The assay is described as follows: Immunomodulatory activity in human neutrophils infected with bacteria assessed as increase in bacterial killing by measuring reduced NBT incubated for 30 mins by NBT dye based spectrophotometry. It is filed as functional. As to conditions: 0.5 h. On the set-up: concentration or dose not given beside the values.
The target in a further assay is DNA gyrase (Staphylococcus aureus, UniProt P0A0K8+P20831). Kind of assay: Inhibition of Staphylococcus aureus DNA gyrase using relaxed pBR322 DNA as substrate incubated for 45 mins by agarose gel electrophoresis method. Type of assay: protein-complex assay.

Converted amounts (≈) assume the structure as drawn.

DNA gyrase, sequence (P0A0K8 whole entry): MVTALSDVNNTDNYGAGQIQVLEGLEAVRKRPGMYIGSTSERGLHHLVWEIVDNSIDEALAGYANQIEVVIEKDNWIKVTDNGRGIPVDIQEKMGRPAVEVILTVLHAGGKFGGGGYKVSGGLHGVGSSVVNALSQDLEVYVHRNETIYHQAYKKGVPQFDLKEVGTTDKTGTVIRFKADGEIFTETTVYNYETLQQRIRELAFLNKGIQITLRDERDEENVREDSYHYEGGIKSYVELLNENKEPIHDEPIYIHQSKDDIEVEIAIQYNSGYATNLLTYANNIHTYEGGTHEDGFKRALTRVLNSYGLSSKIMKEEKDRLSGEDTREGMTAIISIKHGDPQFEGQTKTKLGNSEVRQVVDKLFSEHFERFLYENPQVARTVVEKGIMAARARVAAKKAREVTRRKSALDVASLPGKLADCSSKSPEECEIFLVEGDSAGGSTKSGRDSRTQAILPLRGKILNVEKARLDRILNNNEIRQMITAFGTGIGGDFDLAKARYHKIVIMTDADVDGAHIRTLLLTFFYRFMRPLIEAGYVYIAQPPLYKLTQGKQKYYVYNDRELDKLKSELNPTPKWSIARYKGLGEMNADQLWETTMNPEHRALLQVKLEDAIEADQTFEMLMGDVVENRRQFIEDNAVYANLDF
DNA gyrase, sequence (P20831 whole entry): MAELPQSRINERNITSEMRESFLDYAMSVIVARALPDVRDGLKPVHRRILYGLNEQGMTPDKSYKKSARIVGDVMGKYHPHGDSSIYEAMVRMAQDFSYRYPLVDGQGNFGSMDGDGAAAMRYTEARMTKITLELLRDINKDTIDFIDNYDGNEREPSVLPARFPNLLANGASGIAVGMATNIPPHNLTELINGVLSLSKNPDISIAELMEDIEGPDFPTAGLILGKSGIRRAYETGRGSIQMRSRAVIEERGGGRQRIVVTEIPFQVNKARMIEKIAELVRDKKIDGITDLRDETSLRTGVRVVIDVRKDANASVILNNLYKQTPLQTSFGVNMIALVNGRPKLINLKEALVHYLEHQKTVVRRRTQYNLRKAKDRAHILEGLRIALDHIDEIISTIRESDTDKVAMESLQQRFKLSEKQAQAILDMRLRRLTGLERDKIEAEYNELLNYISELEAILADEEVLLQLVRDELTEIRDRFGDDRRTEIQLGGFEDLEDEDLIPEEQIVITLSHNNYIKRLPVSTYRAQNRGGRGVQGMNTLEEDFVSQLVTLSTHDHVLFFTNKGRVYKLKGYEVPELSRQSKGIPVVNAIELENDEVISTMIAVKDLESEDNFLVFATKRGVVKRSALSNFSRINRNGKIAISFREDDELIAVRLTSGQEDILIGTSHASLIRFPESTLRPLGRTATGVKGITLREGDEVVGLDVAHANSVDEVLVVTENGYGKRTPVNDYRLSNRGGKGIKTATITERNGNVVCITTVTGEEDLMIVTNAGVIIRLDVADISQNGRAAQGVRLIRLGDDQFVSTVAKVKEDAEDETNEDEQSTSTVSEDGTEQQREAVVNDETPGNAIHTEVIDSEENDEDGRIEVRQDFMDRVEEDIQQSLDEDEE

Usually MIC stands for the least concentration at which growth counts as inhibited. The MBC is the lowest tested concentration that kills the bacteria rather than only halting them. By MFC is commonly meant the lowest tested concentration that kills the fungus rather than only halting it. In general, IC50 refers to the concentration at which inhibition is half-maximal. On to `CCOC(=O)/C(C#N)=C1\C(=O)Nc2ccc(S(=O)(=O)N3CCOCC3)cc21`, for which the zone of inhibition at 500 µg/mL with Enterococcus faecalis [1] amounted to 24 mm; in the assay with Staphylococcus aureus [2] it was 25 mm; with Escherichia coli [3] it was 26 mm; with Salmonella typhimurium [4], 24 mm; in the assay with Candida albicans [5], 23 mm; with Aspergillus brasiliensis [6], 18 mm. Besides, the zone of inhibition at 500 µg/mL with Staphylococcus aureus [19] amounted to 25 mm; with Staphylococcus aureus [20], 25 mm; in the assay on Escherichia coli [21] it was 26 mm; with Pseudomonas aeruginosa [22] it was 24 mm. Further, the minimum inhibitory concentration (MIC) in the assay with Enterococcus faecalis [7] stood at 3.9 µg/mL (≈ 9.96 µM); with Staphylococcus aureus [8] it was 15.6 µg/mL (≈ 39.9 µM); in the assay with Escherichia coli [9] it was 3.9 µg/mL (≈ 9.96 µM); with Salmonella typhimurium [10], 31.2 µg/mL (≈ 79.8 µM); with Candida albicans [11] it was 6.25 µg/mL (≈ 16 µM); in the assay on Aspergillus brasiliensis [12], 88.3 µg/mL (≈ 226 µM). Moreover, the MIC with Staphylococcus aureus [23] is 1.95 µg/mL (≈ 4.98 µM); in the assay with Staphylococcus aureus [24] it was 1.95 µg/mL (≈ 4.98 µM); with Escherichia coli [25] it was 1.57 µg/mL (≈ 4.01 µM); in the assay on Pseudomonas aeruginosa [26] it was 3.9 µg/mL (≈ 9.96 µM). For the same compound, the minimum bactericidal concentration (MBC) with Enterococcus faecalis [13] amounted to 7.8 µg/mL (≈ 19.9 µM); in the assay on Staphylococcus aureus [14], 21.9 µg/mL (≈ 55.9 µM); in the assay on Escherichia coli [15] it was 7.8 µg/mL (≈ 19.9 µM); against Salmonella typhimurium [16], 62.5 µg/mL (≈ 160 µM); in the assay on Staphylococcus aureus [27] it was 3.12 µg/mL (≈ 7.97 µM); in the assay with Staphylococcus aureus [28] it was 3.7 µg/mL (≈ 9.45 µM). In addition, the minimal bactericidal concentration (MBC) amounted to 3.14 µg/mL (≈ 8.02 µM) in the assay on Escherichia coli [29] and 7.8 µg/mL (≈ 19.9 µM) against Pseudomonas aeruginosa [30]. The MFC in the assay with Candida albicans [17] came out at 10.6 µg/mL (≈ 27.1 µM); in the assay with Aspergillus brasiliensis [18] it was 124 µg/mL (≈ 316 µM). The Activity in the assay with Neutrophil is listed as 152.3%. Further, the midpoint of inhibition against DNA gyrase, the IC50, lay at 27 µM.
Consider `CCn1cc(C(=O)O)c(=O)c2cc(F)c(N3CCNCC3)cc21` [NORFLOXACIN], for which the zone of inhibition at 500 µg/mL with Staphylococcus aureus [19] was 25 mm; in the assay on Staphylococcus aureus [20] it was 26 mm; in the assay on Escherichia coli [21] it was 27 mm; with Pseudomonas aeruginosa [22], 24 mm. Also, the MIC came out at 1.25 µg/mL (≈ 3.91 µM) with Staphylococcus aureus [23], 0.78 µg/mL (≈ 2.44 µM) with Staphylococcus aureus [24], 1.57 µg/mL (≈ 4.92 µM) in the assay with Escherichia coli [25] and 3.13 µg/mL (≈ 9.8 µM) in the assay with Pseudomonas aeruginosa [26]. In addition, the MBC was 2.81 µg/mL (≈ 8.8 µM) with Staphylococcus aureus [27], 1.56 µg/mL (≈ 4.89 µM) in the assay with Staphylococcus aureus [28], 3.53 µg/mL (≈ 11.1 µM) in the assay on Escherichia coli [29] and 4.69 µg/mL (≈ 14.7 µM) against Pseudomonas aeruginosa [30].
